Data as given in patent publication US20090203737A1, “Pyrrole Derivatives as Positive Allosteric Modulators of Metabotropic Receptors” (priority 2005, published 2009).

Experiments:
rat mGluR5 receptor = target: T1, rat mGluR5 receptor (Rattus norvegicus, UniProt P31424); test: mGluR5 assay on HEK-expressing rat mGluR5 (fluorescent cell based Ca2+ mobilization assay); conditions: for activation of rat mGluR5 receptors: HEK-rat mGluR5 cell line, without co-addition of glutamate or mGluR5 agonist; for EC50: HEK-293 cells stably expressing rat mGluR5, no co-addition of glutamate, mean of at least three independent experiments in duplicate, read-out: Ca++ Flux (mean EC50)
T1 construct: expressed in transfected cells
T1 sequence (P31424 21-1171 isoform P31424-2 limits assumed): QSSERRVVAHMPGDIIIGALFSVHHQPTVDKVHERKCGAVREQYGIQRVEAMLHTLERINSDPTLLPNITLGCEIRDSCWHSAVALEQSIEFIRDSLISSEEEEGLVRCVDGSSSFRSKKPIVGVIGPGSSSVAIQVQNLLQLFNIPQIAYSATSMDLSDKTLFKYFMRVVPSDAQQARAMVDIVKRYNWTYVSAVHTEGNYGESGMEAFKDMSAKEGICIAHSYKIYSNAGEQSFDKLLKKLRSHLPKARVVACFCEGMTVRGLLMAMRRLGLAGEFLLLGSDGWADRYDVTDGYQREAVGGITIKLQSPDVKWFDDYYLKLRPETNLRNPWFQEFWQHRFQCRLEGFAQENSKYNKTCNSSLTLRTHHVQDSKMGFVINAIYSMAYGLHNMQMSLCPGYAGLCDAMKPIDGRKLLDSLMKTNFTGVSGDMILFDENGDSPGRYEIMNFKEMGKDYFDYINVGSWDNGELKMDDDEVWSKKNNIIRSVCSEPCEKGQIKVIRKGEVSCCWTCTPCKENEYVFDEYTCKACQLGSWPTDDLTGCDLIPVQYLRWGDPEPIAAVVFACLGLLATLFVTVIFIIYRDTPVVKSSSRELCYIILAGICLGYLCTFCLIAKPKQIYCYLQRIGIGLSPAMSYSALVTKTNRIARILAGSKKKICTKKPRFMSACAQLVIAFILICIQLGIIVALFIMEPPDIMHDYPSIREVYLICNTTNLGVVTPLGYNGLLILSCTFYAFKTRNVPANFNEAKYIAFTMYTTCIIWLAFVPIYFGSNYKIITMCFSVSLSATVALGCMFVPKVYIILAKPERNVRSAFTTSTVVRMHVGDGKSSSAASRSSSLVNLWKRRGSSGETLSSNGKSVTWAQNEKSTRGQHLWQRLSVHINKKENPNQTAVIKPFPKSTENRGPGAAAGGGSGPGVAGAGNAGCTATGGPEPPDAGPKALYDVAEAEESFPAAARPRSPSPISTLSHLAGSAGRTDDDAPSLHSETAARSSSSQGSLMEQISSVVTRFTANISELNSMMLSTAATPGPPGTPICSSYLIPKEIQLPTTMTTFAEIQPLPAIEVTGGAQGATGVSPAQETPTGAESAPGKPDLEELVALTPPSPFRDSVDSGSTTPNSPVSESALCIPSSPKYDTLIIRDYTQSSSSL
Method: Positive functional expression of HEK-293 cells stably expressing rat mGluR5 receptor was determined by measuring intracellular Ca^2+ changes using a Fluorometric Imaging Plate Reader (FLIPR, Molecular Devices, Sunnyvale, Calif.) in response to glutamate or selective known mGluR5 agonists and antagonists. Rat mGluR5 RT-PCR products in HEK-293 cells were sequenced and found 100% identical to rat mGluR5 Genbank reference sequence (NM_017012). HEK-293 cells expressing rmGluR5 were maintained in media containing DMEM, dialyzed Fetal Bovine Serum (10%), Glutamax™ (2 mM), Penicillin (100 units/ml), Streptomycin (100 μg/ml), Geneticin (100 μg/ml) and Hygromycin-B (40 μg/ml) at 37° C./5% CO2.
After one day of incubation, cells were washed with assay buffer containing: 142 mM NaCl, 6 mM KCl, 1 mM […], 1 mM CaCl2, 20 mM HEPES, 1 g/L glucose, 0.125 mM sulfinpyrazone, pH 7.4. After 60 min of loading with 4 uM Fluo-4 (TefLabs, Austin, Tex.), the cells were washed three times with 50 μl of PBS Buffer and resuspended in 45 μl of assay Buffer. The plates were then transferred to a Fluorometric Imaging Plate Reader (FLIPR, Molecular Devices, Sunnyvale, Calif.) for the assessment of intracellular calcium flux. After monitoring the baseline fluorescence for 10 seconds, increasing concentrations of representative compound (from 0.01 to 60 μM) of the present invention diluted in Assay Buffer (15 μl of 4× dilutions) was added to the cell. The final DMSO concentration in the assay was 0.3%. In each experiment, fluorescence was then monitored as a function of time for 3 minutes and the data analyzed using Microsoft Excel and GraphPad Prism. Each data point was also measured two times.
Under these experimental conditions, this HEK-rat mGluR5 cell line is able to directly detect positive allosteric modulators without the need of co-addition of glutamate or mGluR5 agonist.
The concentration-response curves of representative compounds of the present invention were generated using the Prism GraphPad software (Graph Pad Inc, San Diego, USA). The curves were fitted to a four-parameter logistic equation:
(Y=Bottom+(Top−Bottom)/(1+10̂((LogEC50−X)*Hill Slope)
allowing determination of EC50 values.
The Table 1 below represents the mean EC50 obtained from at least three independent experiments of selected molecules performed in duplicate.

mGluR5 [1] = target: T2, mGluR5 (Rattus norvegicus, UniProt P31424); conditions: Liu et al (2006), Zhang et al (2005); cited from earlier work
T2 construct: positive allosteric modulators of mGluR5 receptors in native preparations; endogenous in cells; host or cells: primary cortical astrocytes from Sprague-Dawley rat embryos (E16-19)
T2 sequence (P31424 21-1203): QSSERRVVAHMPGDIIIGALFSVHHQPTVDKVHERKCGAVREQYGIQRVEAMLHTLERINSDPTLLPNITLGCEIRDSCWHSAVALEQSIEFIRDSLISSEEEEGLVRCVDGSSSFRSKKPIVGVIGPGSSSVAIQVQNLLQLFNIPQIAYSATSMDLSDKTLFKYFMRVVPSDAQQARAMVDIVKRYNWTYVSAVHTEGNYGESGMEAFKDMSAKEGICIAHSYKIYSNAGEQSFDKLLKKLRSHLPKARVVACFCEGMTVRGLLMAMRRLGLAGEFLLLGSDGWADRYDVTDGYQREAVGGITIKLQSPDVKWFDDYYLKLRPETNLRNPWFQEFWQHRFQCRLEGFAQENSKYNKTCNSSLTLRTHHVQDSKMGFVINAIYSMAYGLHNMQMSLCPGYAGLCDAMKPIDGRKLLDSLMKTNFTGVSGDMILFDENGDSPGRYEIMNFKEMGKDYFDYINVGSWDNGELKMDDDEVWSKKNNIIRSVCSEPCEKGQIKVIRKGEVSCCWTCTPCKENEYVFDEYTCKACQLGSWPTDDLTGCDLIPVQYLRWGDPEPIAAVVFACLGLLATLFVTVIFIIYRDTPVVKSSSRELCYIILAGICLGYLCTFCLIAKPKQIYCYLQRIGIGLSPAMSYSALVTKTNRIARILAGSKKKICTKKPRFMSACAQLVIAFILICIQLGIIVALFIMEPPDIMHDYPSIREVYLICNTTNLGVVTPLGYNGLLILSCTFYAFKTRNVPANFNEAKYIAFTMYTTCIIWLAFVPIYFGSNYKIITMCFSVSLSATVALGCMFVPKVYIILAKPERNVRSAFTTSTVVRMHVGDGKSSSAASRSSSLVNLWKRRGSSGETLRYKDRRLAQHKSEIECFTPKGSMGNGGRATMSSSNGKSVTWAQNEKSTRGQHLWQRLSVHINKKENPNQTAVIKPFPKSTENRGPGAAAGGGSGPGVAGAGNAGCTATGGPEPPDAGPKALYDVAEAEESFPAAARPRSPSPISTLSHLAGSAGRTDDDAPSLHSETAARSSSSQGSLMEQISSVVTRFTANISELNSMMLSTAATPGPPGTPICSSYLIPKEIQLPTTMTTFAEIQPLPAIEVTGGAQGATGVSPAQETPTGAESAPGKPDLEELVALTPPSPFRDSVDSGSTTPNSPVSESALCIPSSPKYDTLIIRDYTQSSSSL

mGluR5 [2] = target: T2, mGluR5; test: mGluR5 binding assay ([3H]-MPEP, rat brain membranes); conditions: 3 nM [3H]-MPEP, 1 h at 4° C.
Source text: Activity of compounds of the invention was examined following a radioligand binding technique using whole rat brain and tritiated 2-methyl-6-(phenylethynyl)-pyridine ([^3H]-MPEP) as a ligand following similar methods than those described in Gasparini et al. (2002) Bioorg. Med. Chem. Lett. 12:407-409 and in Anderson et al. (2002) J. Pharmacol. Exp. Ther. 303 (3) 1044-1051.
Cortices were dissected out from brains of 200-300g Sprague-Dawley rats (Charles River Laboratories, L'Arbresle, France). Tissues were homogenized in 10 volumes (vol/wt) of ice-cold 50 mM HEPES-NaOH (pH 7.4) using a Polytron disrupter (Kinematica AG, Luzern, Switzerland) and centrifuged for 30 min at 40,000 g. (4° C.). […] Protein concentration was determined by the Bradford method (Bio-Rad protein assay, Reinach, Switzerland) with bovine serum albumin as standard.
Membranes were thawed and resuspended in binding buffer containing 20 mM HEPES-NaOH, 3 mM MgCl2, 3 mM CaCl2, 100 mM NaCl, pH 7.4. […] Radioactivity was determined by liquid scintillation spectrometry using a 96-well plate reader (TopCount, Perkin-Elmer, Downers Grove, USA).
The inhibition curves were generated using the Prism GraphPad program (Graph Pad Software Inc, San Diego, USA). […] The mean of IC50 obtained from at least three independent experiments of selected molecules performed in duplicate were calculated.

activation of rat mGluR5 receptors (rat mGluR5 receptor)	EC50 (rat mGluR5 receptor) [nM]	IC50 (mGluR5 [2]) [nM]	melting point [°C]	SMILES	activity in rat cortical astrocytes culture in the absence of added glutamate (mGluR5 [1])
activating				N#Cc1cccc(C(=O)Nc2cc(-c3ccccc3)nn2-c2ccccc2)c1 [CDPPB, reference compound]	inactive
activating				O=C(Nc1ccc(Cl)cc1CN1C(=O)c2ccccc2C1=O)c1ccccc1O [CPPHA, reference compound]	inactive
activating				Fc1cccc(/C=N/N=C/c2cccc(F)c2)c1 [DFB, reference compound]	inactive
	< 1000	< 30000	130 to 135	O=C(c1ccc(F)cc1)N1CCC[C@H](c2nc(-c3ccc[nH]3)no2)C1 [Example 1, (4-Fluoro-phenyl)-{(S)-3-[3-(1H-pyrrol-2-yl)-[1,2,4]oxadiazol-5-yl]-piperidin-1-yl}-methanone]	
	< 1000		147	O=C(c1ccc(F)nc1)N1CCC[C@H](c2noc(-c3ccc[nH]3)n2)C1 [Example 21, (6-Fluoro-pyridin-3-yl)-{(S)-3-[5-(1H-pyrrol-2-yl)-[1,2,4]oxadiazol-3-yl]-piperidin-1-yl}-methanone]	
	< 1000		181	O=C(c1ccc(F)cc1)N1CCC[C@H](c2noc(-c3ccc[nH]3)n2)C1 [Example 22, (4-Fluoro-phenyl)-{(S)-3-[5-(1H-pyrrol-2-yl)-[1,2,4]oxadiazol-3-yl]-piperidin-1-yl}-methanone]	
	1000 to 10000		163.1 to 164.3	O=C(c1ccc(F)nc1)N1CCCC(c2noc(-c3cc4ccccc4[nH]3)n2)C1 (stereo not drawn) [Example 23, (6-Fluoro-pyridin-3-yl)-{3-[5-(1H-indol-2-yl)-[1,2,4]oxadiazol-3-yl]-piperidin-1-yl}-methanone]	
	1000 to 10000		156 to 157	O=C(c1ccc(F)c(F)c1)N1CCC[C@H](c2nc(-c3ncc[nH]3)no2)C1 [Example 25, (3,4-Difluoro-phenyl)-{(S)-3-[3-(1H-imidazol-2-yl)-[1,2,4]oxadiazol-5-yl]-piperidin-1-yl}-methanone]	
	1000 to 10000		175.6 to 177.2	Cc1oncc1C(=O)N1CCCC(c2noc(-c3cc4ccccc4[nH]3)n2)C1 (stereo not drawn) [Example 26, {3-[5-(1H-Indol-2-yl)-[1,2,4]oxadiazol-3-yl]-piperidin-1-yl}-(5-methyl-isoxazol-4-yl)-methanone]	
	< 1000		183	Cc1c[nH]c(-c2nc([C@H]3CCCN(C(=O)c4ccc(F)cc4)C3)no2)c1 [Example 27, (4-Fluoro-phenyl)-{(S)-3-[5-(4-methyl-1H-pyrrol-2-yl)-[1,2,4]oxadiazol-3-yl]-piperidin-1-yl}-methanone]	
	< 1000		188 to 190	Cc1c[nH]c(-c2noc([C@H]3CCCN(C(=O)c4ccc(F)cc4)C3)n2)c1 [Example 31, (4-Fluoro-phenyl)-{(S)-3-[3-(4-methyl-1H-pyrrol-2-yl)-[1,2,4]oxadiazol-5-yl]-piperidin-1-yl}-methanone]	
	< 1000		166 to 167	Cc1c[nH]c(-c2noc([C@H]3CCCN(C(=O)c4ccc(F)c(F)c4)C3)n2)c1 [Example 32, (3,4-Difluoro-phenyl)-{(S)-3-[3-(4-methyl-1H-pyrrol-2-yl)-[1,2,4]oxadiazol-5-yl]-piperidin-1-yl}-methanone]	
	< 1000		157 to 158	O=C(c1ccc(F)cc1)N1CCC[C@H](c2noc(-c3cc([N+](=O)[O-])c[nH]3)n2)C1 [Example 36, (4-Fluoro-phenyl)-{(S)-3-[5-(4-nitro-1H-pyrrol-2-yl)-[1,2,4]oxadiazol-3-yl]-piperidin-1-yl}-methanone]	
	1000 to 10000		132 to 133	O=C(c1ccc(F)cc1)N1CCC[C@@H](c2nc(-c3ccc[nH]3)no2)C1 [Example 37, (4-Fluoro-phenyl)-{(R)-3-[3-(1H-pyrrol-2-yl)-[1,2,4]oxadiazol-5-yl]-piperidin-1-yl}-methanone]	
	1000 to 10000		114.8 to 118	O=C(c1ccc(F)cc1)N1CCCC(F)(c2nc(-c3ccc[nH]3)no2)C1 (stereo not drawn) [Example 47, (4-Fluoro-phenyl)-{3-fluoro-3-[3-(1H-pyrrol-2-yl)-[1,2,4]oxadiazol-5-yl]-piperidin-1-yl}-methanone]	
	< 1000		146.5 to 147.2	O=C(c1ccc(F)cc1)N1CCC[C@H](c2nc(-c3cc(F)c[nH]3)no2)C1 [Example 50, (4-Fluoro-phenyl)-{(S)-3-[3-(4-fluoro-1H-pyrrol-2-yl)-[1,2,4]oxadiazol-5-yl]-piperidin-1-yl}-methanone]	
	< 1000		147.5 to 148.2	O=C(c1ccc(F)c(F)c1)N1CCC[C@H](c2nc(-c3cc(F)c[nH]3)no2)C1 [Example 51, (3,4-Difluoro-phenyl)-{(S)-3-[3-(4-fluoro-1H-pyrrol-2-yl)-[1,2,4]oxadiazol-5-yl]-piperidin-1-yl}-methanone]	
	1000 to 10000		204.8 to 205.6	N#Cc1c[nH]c(-c2nc([C@H]3CCCN(C(=O)c4ccc(F)cc4)C3)no2)c1 [Example 72, (4-Fluoro-phenyl)-{(S)-3-[5-(4-cyano-1H-pyrrol-2-yl)-[1,2,4]oxadiazol-3-yl]-piperidin-1-yl}-methanone]	
	> 10000		183.5	O=C(c1ccc(F)cc1)N1CCC[C@H](c2noc(-c3cc(C(F)(F)F)c[nH]3)n2)C1 [Example 76, (4-Fluoro-phenyl)-{(S)-3-[5-(4-trifluoromethyl-1H-pyrrol-2-yl)-[1,2,4]oxadiazol-3-yl]-piperidin-1-yl}-methanone]	
